Earlier results as cited in US5840770A, “Method of killing tumor cells” (Hill Medical Corporation, priority 1997, dated 1998).

What was measured:
[1] = test system: low-grade non-Hodgkin's lymphoma, cutaneous T cell lymphoma, chronic myelogenous leukemia, Kaposi's sarcoma and especially hairy cell leukemia
[2] = test system: mouse and rat transplanted tumors; details: in vivo
cholinergic receptors = details: in vivo
[3] = not given; remark: listed apart in the source
[4] = normally
serum potassium = details: in vivo

In the case of Interferon-alpha, the efficacy ([1]; listed lymphomas, leukemias, Kaposi's sarcoma) is listed as “effective” and the “effect on other tumors” value ([1]; tumors other than those listed) is listed as “no effect”.
In the case of Glucagon: glucagon alone, the “effect on transplanted tumors” value [2] is given as “arrested these cancers”.
In the case of `CC[C@@H]1C(=O)OC[C@@H]1Cc1cncn1C` [Pilocarpine, pilocarpine], the duration (cholinergic receptors) is given as 4 to 8 h and the onset (cholinergic receptors) is given as 15 to 30 min.
In the case of `O=C[C@H](O)[C@@H](O)[C@H](O)[C@H](O)CO` [dextrose], the osmolarity (5% dextrose) is listed as 253 mOsm/L, the tonicity (5% dextrose solution) is listed as “isotonic” and the infused glucose retained ([3]; 0.8 gm/kg/hour) is listed as 95%. For the same compound, the “maximum infusion rate without producing glycosuria” value ([3]; in vivo) was 0.5 gm/kg/hour.
For `[K+]` [potassium], the “potassium intake excreted in the urine” value [4] is listed as 80-90%.
For insulin, the serum potassium concentration (serum potassium) is listed as “lowers serum potassium concentration” and the “effect on transplanted tumors” value [2] is listed as “no therapeutic effect”.
